# Data taken from patent US7709444B2, “Echinocandin pharmaceutical formulations containing micelle-forming surfactants” (Pfizer Inc., priority 1999, dated 2010).
# *1 amine or outer side, *2 acyl side, *3 side chain or, on linkers, in order; H or OH if unused. Where a SMILES comes first, the peptide text is derived from it. Bridges are numbered along the chain shown (N, C = ends). [ ]: non-standard residue; d: D form. The star is where a group is joined. ξ: configuration not given here. pTerphenylCO(4''-OnC5H11) = CCCCCOc1ccc(-c2ccc(-c3ccc(C(=O)*)cc3)cc2)cc1; ξOrn(4,5-diOH) = O=C(C(CC(O)C(O)N[*:3])N[*:1])[*:2]; ξhTyr(βξ-OH,γξ-OH) = NC(C(=O)O)C(O)C(O)c1ccc(O)cc1; ξPro(3ξ-OH,4ξ-Me) = CC1CNC(C(=O)O)C1O; Hyp = O=C(O)[CH]1C[CH](O)CN1
# How the values were obtained:
# [1] = Solubility studies of Com 6(a) in surfactant test solutions, reverse phase HPLC; format: physicochemical; details: room temperature
# Description: Solubility studies were performed at room temperature by transferring 5 ml of test solution (surfactant in water optionally containing a bulking agent, a buffer or a stabilizing agent) and 50 mg of Com 6(a) into a glass test tube. The test tubes were agitated overnight and examined for excess solid. Test tubes containing excess solid were removed for analysis. […] All samples were allowed to stand 1 h, supernatant was removed, filtered and analyzed by reverse phase HPLC to determine the potency of Com 6(a) per Ml of solution.
# [2] = Stability of solution formulations, related substances by reverse phase HPLC, storage at 40° C.; format: physicochemical
# Description: The stability of solution and freeze-dried formulations was evaluated by monitoring a sample of the formulation for the percent increase in related substances by reverse phase HPLC at initial, 2 weeks and 4 weeks of storage at 40° C.
structure (smiles),measurement,setting,value
"CCCCCOc1ccc(-c2ccc(-c3ccc(C(=O)NC4CC(O)C(O)NC(=O)C5C(O)C(C)CN5C(=O)C(C(C)O)NC(=O)C(C(O)C(O)c5ccc(O)cc5)NC(=O)C5CC(O)CN5C(=O)C(C(C)O)NC4=O)cc3)cc2)cc1 (stereo not drawn) [Compound 6(a)] ({pTerphenylCO(4''-OnC5H11)}-[ξOrn(4,5-diOH)]T[Hyp][ξhTyr(βξ-OH,γξ-OH)]T[ξPro(3ξ-OH,4ξ-Me)]; lactam 1-C; configuration not given here)",Comp6(a) Potency (solubility),[1]; Sur None,<100 µg/mL
same,Comp6(a) Potency (solubility),[1]; ethoxylated castor oil (cremophor EL) [25],11000 µg/mL
same,Percent Related Substances,"[2]; 6(a) 1 mg/ml, Poly 80(25), Ace(0.6), Man(50), 0 wks",3.15%
same,Percent Related Substances,"[2]; 6(a) 1 mg/ml, Poly 80(25), Ace(0.6), Man(50), 2 wks",11.37%
same,Percent Related Substances,"[2]; 6(a) 1 mg/ml, Poly 80(25), Ace(0.6), Man(50), 4 wks",19.44%
same,Percent Related Substances,"[2]; 6(a) 1 mg/ml, Poly 80(25), Ace(3), Man(50), 0 wks",3.33%
same,Percent Related Substances,"[2]; 6(a) 1 mg/ml, Poly 80(25), Ace(3), Man(50), 2 wks",12.20%
same,Percent Related Substances,"[2]; 6(a) 1 mg/ml, Poly 80(25), Ace(3), Man(50), 4 wks",18.29%
same,Percent Related Substances,"[2]; 6(a) 1 mg/ml, Poly 80(25), Ace(6), Man(50), 0 wks",3.27%
same,Percent Related Substances,"[2]; 6(a) 1 mg/ml, Poly 80(25), Ace(6), Man(50), 2 wks",11.07%
same,Percent Related Substances,"[2]; 6(a) 1 mg/ml, Poly 80(25), Ace(6), Man(50), 4 wks",19.59%
same,Percent Related Substances,"[2]; 6(a) 1 mg/ml, Poly 80(25), Cit(1.9), Man(50), 0 wks",3.42%
same,Percent Related Substances,"[2]; 6(a) 1 mg/ml, Poly 80(25), Cit(1.9), Man(50), 2 wks",8.91%
same,Percent Related Substances,"[2]; 6(a) 1 mg/ml, Poly 80(25), Cit(1.9), Man(50), 4 wks",18.04%
same,Percent Related Substances,"[2]; 6(a) 1 mg/ml, Poly 80(25), Cit(9.6), Man(50), 0 wks",3.36%
same,Percent Related Substances,"[2]; 6(a) 1 mg/ml, Poly 80(25), Cit(9.6), Man(50), 2 wks",9.25%
same,Percent Related Substances,"[2]; 6(a) 1 mg/ml, Poly 80(25), Cit(9.6), Man(50), 4 wks",17.29%
same,Percent Related Substances,"[2]; 6(a) 1 mg/ml, Poly 80(25), Cit(19.2), Man(50), 0 wks",3.47%
same,Percent Related Substances,"[2]; 6(a) 1 mg/ml, Poly 80(25), Cit(19.2), Man(50), 2 wks",9.70%
same,Percent Related Substances,"[2]; 6(a) 1 mg/ml, Poly 80(25), Cit(19.2), Man(50), 4 wks",18.02%
same,Percent Related Substances,"[2]; 6(a) 10 mg/ml, Poly 80(5) + Poly 20(20), Ace(6), 0 wks",2.67%
same,Percent Related Substances,"[2]; 6(a) 10 mg/ml, Poly 80(5) + Poly 20(20), Ace(6), 2 wks",9.77%
same,Percent Related Substances,"[2]; 6(a) 10 mg/ml, Poly 80(5) + Poly 20(20), Ace(6), 4 wks",15.57%
same,Percent Related Substances,"[2]; 6(a) 10 mg/ml, Poly 80(15) + Poly 20(10), Ace(6), 0 wks",2.70%
same,Percent Related Substances,"[2]; 6(a) 10 mg/ml, Poly 80(15) + Poly 20(10), Ace(6), 2 wks",10.55%
same,Percent Related Substances,"[2]; 6(a) 10 mg/ml, Poly 80(15) + Poly 20(10), Ace(6), 4 wks",15.34%
same,Percent Related Substances,"[2]; 6(a) 10 mg/ml, Poly 80(20) + Poly 20(5), Ace(6), 0 wks",2.65%
same,Percent Related Substances,"[2]; 6(a) 10 mg/ml, Poly 80(20) + Poly 20(5), Ace(6), 2 wks",11.06%
same,Percent Related Substances,"[2]; 6(a) 10 mg/ml, Poly 80(20) + Poly 20(5), Ace(6), 4 wks",15.44%
same,Percent Related Substances,"[2]; 6(a) 10 mg/ml, Poly 80(25) only, no buffer, 0 wks",3.62%
same,Percent Related Substances,"[2]; 6(a) 10 mg/ml, Poly 80(25) only, no buffer, 2 wks",18.71%
same,Percent Related Substances,"[2]; 6(a) 10 mg/ml, Poly 80(25) only, no buffer, 4 wks",27.91%
same,Percent Related Substances,"[2]; 6(a) 10 mg/ml, Poly 80(25), Ace(3), 0 wks",2.51%
same,Percent Related Substances,"[2]; 6(a) 10 mg/ml, Poly 80(25), Ace(3), 2 wks",9.46%
same,Percent Related Substances,"[2]; 6(a) 10 mg/ml, Poly 80(25), Ace(3), 4 wks",14.39%
same,Percent Related Substances,"[2]; 6(a) 10 mg/ml, Poly 80(25), Ace(6), co-solvent 20% PEG400, 0 wks",2.83%
same,Percent Related Substances,"[2]; 6(a) 10 mg/ml, Poly 80(25), Ace(6), co-solvent 20% PEG400, 2 wks",9.69%
same,Percent Related Substances,"[2]; 6(a) 10 mg/ml, Poly 80(25), Ace(6), co-solvent 20% PEG400, 4 wks",14.35%
same,Percent Related Substances,"[2]; 6(a) 10 mg/ml, Poly 80(25), Ace(6), co-solvent 20% PPG, 0 wks",2.71%
same,Percent Related Substances,"[2]; 6(a) 10 mg/ml, Poly 80(25), Ace(6), co-solvent 20% PPG, 2 wks",10.58%
same,Percent Related Substances,"[2]; 6(a) 10 mg/ml, Poly 80(25), Ace(6), co-solvent 20% PPG, 4 wks",13.40%
same,Percent Related Substances,"[2]; 6(a) 10 mg/ml, Poly 80(25), Ace(6), co-solvent 40% PEG400, 0 wks",2.57%
same,Percent Related Substances,"[2]; 6(a) 10 mg/ml, Poly 80(25), Ace(6), co-solvent 40% PEG400, 2 wks",10.38%
same,Percent Related Substances,"[2]; 6(a) 10 mg/ml, Poly 80(25), Ace(6), co-solvent 40% PEG400, 4 wks",13.36%
same,Percent Related Substances,"[2]; 6(a) 10 mg/ml, Poly 80(25), Ace(6), co-solvent 40% PPG, 0 wks",2.72%
same,Percent Related Substances,"[2]; 6(a) 10 mg/ml, Poly 80(25), Ace(6), co-solvent 40% PPG, 2 wks",9.84%
same,Percent Related Substances,"[2]; 6(a) 10 mg/ml, Poly 80(25), Ace(6), co-solvent 40% PPG, 4 wks",12.65%
same,Percent Related Substances,"[2]; 6(a) 10 mg/ml, Poly 80(25), no buffer, Man(50), 0 wks",3.68%
same,Percent Related Substances,"[2]; 6(a) 10 mg/ml, Poly 80(25), no buffer, Man(50), 2 wks",16.65%
same,Percent Related Substances,"[2]; 6(a) 10 mg/ml, Poly 80(25), no buffer, Man(50), 4 wks",23.68%
same,Percent Related Substances,"[2]; 6(a) 10 mg/ml, Poly 80(25), no buffer, co-solvent 1% PEG 3350, 0 wks",3.68%
same,Percent Related Substances,"[2]; 6(a) 10 mg/ml, Poly 80(25), no buffer, co-solvent 1% PEG 3350, 2 wks",21.56%
same,Percent Related Substances,"[2]; 6(a) 10 mg/ml, Poly 80(25), no buffer, co-solvent 40% PEG 400, 0 wks",3.73%
same,Percent Related Substances,"[2]; 6(a) 10 mg/ml, Poly 80(25), no buffer, co-solvent 40% PEG 400, 2 wks",15.26%
same,Percent Related Substances,"[2]; 6(a) 10 mg/ml, Poly 80(25), no buffer, co-solvent 40% PEG 400, 4 wks",23.99%
